Results: patent US8501991B2, “P53 activating compounds” (University Court of the University of Dundee, priority 2006, dated 2013)
Where a name gives a salt, the structure may show the parent alone.

How the values were obtained:
SirT1 = SirT1 (Homo sapiens (Human), UniProt Q96EB6); test: In vitro deacetylation assay (Fluor de Lys SirT1 Fluorescent Activity Assay); assay type: biochemical; conditions: FdL substrate 7 μM, NAD+ 1 mM, 37° C., 1 hour; read-out: SIRT1 inhibition IC50
Description: Enzymatic SirT1 assays were carried out using purified components in the Fluor de Lys Fluorescent Assay Systems (Biomol kit AK555) and following the manufacturers instructions. […] Reactions were carried out at 37° C. for 1 hour.
Deacetylation and developer reactions were carried out for 1 hour at 37° C.

[1] = system: p53-dependent transcription; test: p53-dependent transcription in T22 RGC-ΔFos-lacZ cells (primary screen, beta-galactosidase/CPRG); assay type: cell-based; conditions: for Bioactivity (relative to JJ91): p53-dependent transcription in T22 RGC-ΔFos-lacZ cells, JJ91 activity taken as 100%
Description: T22 RGC-ΔFos-lacZ cells expressing beta-galactosidase under the control of a p53-dependent promoter were used and are described by Lu X, Burbidge S A, Griffin S, and Smith H M in Oncogene. […] DMSO should not exceed 1:100 final concentration in medium. Use an untreated control and a positive control treated with 5 ng/ml actinomycin D. Total volume=100 μl • Remove medium from 96 well plate after 18 h and add 50 μl 1× lysis buffer (Promega) per well • Shake for 1 hour at room temperature (can freeze plate at −80° C. until ready to use) • Add 150 μl CPRG reaction mix per well, • Preparation of 15 ml CPRG reaction mix: • 15 ml 0.1M phosphate buffer, pH7.5 • 300 μl CPRG 4 mg/ml (Boehringer-Mannheim) 80 μl (0.1 M MgCl2/0.1 M β-mercaptoethanol) • Incubate 4 hours at 37° C. in a damp chamber. If colour changes from yellow to pink, this indicates p53 activity • Transfer 100 μl from each well to a new 96 well plate. This prevents cell debris from interfering with absorbance reading.
Fold induction of p53-dependent transcription was measured.

SKNSH-DDp53 cells = test: FACS analysis of neuroblastoma cells with inactivated p53; assay type: cell-based; conditions: 10 μM, 48 hours, SKNSH cells with inactive p53
Description: Neuroblastoma cell lines SKNSH-CMVNeo (with functional p53) and SKNSH-DDp53 (inactivated p53) were used and are described by Smart P, Lane E B, Lane D P, Midgley C, Vojtesek B, Lain S. in Oncogene. 1999 Dec. 2; 18(51):7378-86.
• Seed 50,000 cells per well of a 6 well plate in DMEM-10% FCS Day 2 • Add drugs to cells Day 4 • Add bromodeoxyuridine (BrdU) to 30 μM and incubate cells for 20 minutes. • Remove media from cells and transfer to a 13 ml Falcon tube. Rinse cells with PBS and transfer this also. Trypsinise cells and transfer to tube then finally rinse with PBS again. Once all transferred to tube, pellet cells at 1500 rpm for 5 minutes. • Resuspend cells in 1 ml of PBS and add drop wise to 3 ml of ethanol while vortexing. Incubate for a minimum of 1-2 hours at 4° C. (no maximum). […] Keep on ice in the dark until analysed on the FACScan. • Measure DNA content (propidium iodide fluorescence) and DNA synthesis (BrdU incorporation) by FACScan. […]
Cells were analysed by FACS analysis.

p53 = test: Western blotting of MCF-7 cell extracts; assay type: cell-based; conditions: MCF-7 cells, 10 μM
Description: • Seed 50,000 cells per well of a 6 well plate in DMEM-10% FCS Day 2 • Add drugs to cells Day 4 • Add bromodeoxyuridine (BrdU) to 30 μM and incubate cells for 20 minutes. • Remove media from cells and transfer to a 13 ml Falcon tube. Rinse cells with PBS and transfer this also. Trypsinise cells and transfer to tube then finally rinse with PBS again. Once all transferred to tube, pellet cells at 1500 rpm for 5 minutes. • Resuspend cells in 1 ml of PBS and add drop wise to 3 ml of ethanol while vortexing. Incubate for a minimum of 1-2 hours at 4° C. (no maximum). Day 5 • Pellet by centrifugation at 2,500 rpm for 5 minutes then pour off supernatant. • Prepare 2 ml fresh pepsin solution per tube at 1 mg/ml in 30 mM HCl (pH 1.5) and prewarm to 37° C. • Add 2 ml prewarmed pepsin solution to each tube and mix for 30 mins at 37° C. • Pellet by centrifugation at 2500 rpm for 5 minutes then pour off supernatant (pellets will be clear) • Add 1 ml 2M HCl for 15-20 mins at room temperature (stock bottle is 11.6 M). • Timing is critical—incubating for long periods results in broad DNA peaks. • Top up with PBS then pellet as before. • Wash again with PBS then once in antibody buffer, pelleting cells each time. • Antibody buffer: PBS, 0.5% BSA, 0.5% Tween-20 • Resuspend pellet into 200 μl of Becton Dickinson anti-BrdU antibody diluted 1:50 in antibody buffer. Incubate for 1 h at room temperature. • Wash in PBS and pellet cells. • Resuspend pellet in 200 μl Sigma FITC antibody (#3008) diluted 1:64 in antibody buffer. Incubate for 30 min at room temperature in the dark to prevent the antibody fading. • Wash in PBS and pellet cells. • Resuspend final pellet in 500 μl PBS containing 25 μg/ml propidium iodide counter stain. Keep on ice in the dark until analysed on the FACScan. • Measure DNA content (propidium iodide fluorescence) and DNA synthesis (BrdU incorporation) by FACScan. 3. […]
Levels of the p53 downstream target p21 are increased Actin was analysed as a loading control.

[2] = Blood levels after administration to mice (LC-MS/MS); assay type: in vivo; conditions: 5 mg/kg, intraperitoneal injection
Description: Blood levels were determined at the times shown by LC-MS/MS above and the values shown are the means±SD for three determinations.

[3] = system: BL2 Burkitt lymphoma cells; test: Survival of BL2 Burkitt lymphoma cells; assay type: cell-based; conditions: 1 μM to 10 μM in 70% cyclodextrin, 2 hours exposure daily for six days
Description: At this time, the number of live cells were counted. After this short exposure, cells were washed to remove the compound. This treatment was repeated daily for six days. Experiments were performed in triplicate and standard deviations indicated.

[4] = system: BL2 Burkitt lymphoma xenograft tumours; test: BL2 Burkitt lymphoma xenograft tumours in SCID mice; assay type: in vivo; conditions: 92 mg/kg daily by intraperitoneal injection, measured to day 11
Description: Referring to FIG. 7, BL2 Burkitt lymphoma xenograft tumours in SCID mice were established for 7 days until tumours were palpable. […] Tumour sizes were measured on the day of injection (day 1) and on days 4, 8 and 11 post-injection.

Sequence of SirT1 (Q96EB6 whole entry): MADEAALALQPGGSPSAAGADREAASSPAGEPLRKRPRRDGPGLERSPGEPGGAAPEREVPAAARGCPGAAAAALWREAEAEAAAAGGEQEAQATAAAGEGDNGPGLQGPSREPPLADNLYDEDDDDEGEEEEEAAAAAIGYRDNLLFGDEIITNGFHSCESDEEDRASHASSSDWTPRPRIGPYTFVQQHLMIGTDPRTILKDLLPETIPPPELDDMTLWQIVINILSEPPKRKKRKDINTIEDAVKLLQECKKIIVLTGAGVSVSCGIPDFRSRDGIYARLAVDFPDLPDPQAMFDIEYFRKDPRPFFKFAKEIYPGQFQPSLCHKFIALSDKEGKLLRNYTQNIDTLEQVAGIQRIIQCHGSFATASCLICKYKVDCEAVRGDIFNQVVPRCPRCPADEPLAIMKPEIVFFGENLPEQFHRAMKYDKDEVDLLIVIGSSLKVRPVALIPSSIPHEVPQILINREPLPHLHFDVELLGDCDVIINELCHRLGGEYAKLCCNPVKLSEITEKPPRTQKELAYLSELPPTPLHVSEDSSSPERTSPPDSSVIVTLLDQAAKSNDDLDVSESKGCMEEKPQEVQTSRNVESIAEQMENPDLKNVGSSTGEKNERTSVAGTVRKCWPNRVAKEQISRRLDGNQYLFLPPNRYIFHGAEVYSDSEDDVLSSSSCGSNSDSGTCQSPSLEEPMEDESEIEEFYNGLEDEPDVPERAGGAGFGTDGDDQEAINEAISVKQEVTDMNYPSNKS

| SMILES | IC50 (SirT1) [µM] | Bioactivity (relative to JJ91) [1] | also measured |
| --- | --- | --- | --- |
| CN(C)CCOCCOCCOCCOCCOCC(=O)Nc1ccc(NC(=S)NC(=O)c2ccc(C(C)(C)C)cc2)cc1 [Compound 8, N-{4-[3-(4-tert-Butyl-benzoyl)-thioureido]-phenyl}-2-[2-(2-{2-[2-(2-dimethylamino-ethoxy)-ethoxy]-ethoxy}-ethoxy)-ethoxy]-acetamide hydrochloride] | > 60 |  |  |
| CC(=O)Nc1ccc(NC(=S)NC(=O)c2ccc(C(C)(C)C)cc2)cc1 [JJ91, N-{4-[3-(4-tert-Butyl-benzoyl)-thioureido]-phenyl}-acetamide] |  |  | p53 transcription factor function ([1]; T22 RGC-ΔFos-lacZ cells treated 16 hours): activates p53's transcription factor function; effects on DNA synthesis and cell death (SKNSH-DDp53 cells): not observed; levels of the p53 downstream target p21 (p53): increased; p53 levels (p53): rapidly increased; levels of p53 phosphoserine-15 (p53; compared with mitomycin C 10 μM): not as high as those observed with the genotoxic gent mitomycin C; concentrations in blood [2]: reach micromolar concentrations in blood; weight or behavioural changes [2]: do not cause significant weight or behavioural changes; half-life ([2]; mouse, ip, blood): ~1.3 h; BL2 cell survival [3]: largely reduced; growth of BL2 xenograft tumours [4]: reduces growth of BL2 xenograft tumours |
| CC(C)(C)c1ccc(C(=O)NC(=S)Nc2ccc(NC(=O)c3ccccc3)cc2)cc1 [JH151] |  | Active (106.1%) |  |
| CC(C)(C)c1ccc(C(=O)NC(=S)Nc2ccc(N)cc2)cc1 [JH129, 1-(4-Amino-phenyl)-3-(4-tert-butyl-benzoyl)-thiourea] |  | Active (<) |  |
| CC(C)(C)OC(=O)Nc1ccc(NC(=S)NC(=O)c2ccc(C(C)(C)C)cc2)cc1 [Compound 21, {4-[3-(4-tert-Butyl-benzoyl)-thioureido]-phenyl}-carbamic acid tert-butyl ester] |  |  | activity in the p53 activation assay (in words) [1]: very good activity |
| CC(C)(C)c1ccc(C(=O)NC(=S)Nc2ccc(NC(=O)CCCCBr)cc2)cc1 [JH140, 5-bromo-pentanoic acid {4-[3-(4-tert-butyl-benzoyl)-thioureido]-phenyl}-amide] |  | Active (87.5%) |  |
| CC(C)(C)c1ccc(C(=O)NC(=S)Nc2ccc(NC(=O)CCCCN3CCOCC3)cc2)cc1 [JH156] |  | Active (75.4%) |  |
| CC(C)C(=O)Nc1ccc(NC(=S)NC(=O)c2ccc(C(C)(C)C)cc2)cc1 [Compound 7322366] |  | Active (81.2%) |  |
| CC(C)(C)c1ccc(C(=O)NC(=S)Nc2ccc(NC(=O)CCCCN3CCOCC3)cc2)cc1.Cl [JH156HCl] |  | Active (59.6%) |  |
| CN(C)CCCCCC(=O)Nc1ccc(NC(=S)NC(=O)c2ccc(C(C)(C)C)cc2)cc1 [Compound 6, 6-Dimethylamino-hexanoic acid {4-[3-(4-tert-butyl-benzoyl)-thioureido]-phenyl}-amide hydrochloride] | 16 ± 3 |  |  |
| CN(C)CCCC(=O)Nc1ccc(NC(=S)NC(=O)c2ccc(C(C)(C)C)cc2)cc1 [Compound 5, N-{4-[3-(4-tert-Butyl-benzoyl)-thioureido]-phenyl}-4-dimethylamino-butyramide hydrochloride] | 32 ± 9 |  |  |
| CN(C)CCCCC(=O)Nc1ccc(NC(=O)NC(=O)c2ccc(C(C)(C)C)cc2)cc1 [Compound 24, 5-Dimethylamino-pentanoic acid {4-[3-(4-tert-butyl-benzoyl)-ureido]-phenyl}-amide hydrochloride] | 29 |  |  |
| CN(C)CCCCCCCC(=O)Nc1ccc(NC(=S)NC(=O)c2ccc(C(C)(C)C)cc2)cc1 [Compound 7, 8-Dimethylamino-octanoic acid {4-[3-(4-tert-butyl-benzoyl)-thioureido]-phenyl}-amide hydrochloride] | 25 ± 10 |  |  |
